Source: publication PMC8621172, “Manipulating Estrogenic/Anti-Estrogenic Activity of Triphenylethylenes towards Development of Novel Anti-Neoplastic SERMs” (International Journal of Molecular Sciences, 2021)
“And” between values parts separate entries of the source, which are not always exact repeats. Identical values can stand only once.

Key:
[1] = biological target: T1, human ERα (Homo sapiens, UniProt P03372); test: Yeast estrogen screen (YES) assay, agonistic activity (β-galactosidase reporter); type: cell-based; conditions: triplicates; for Estrogenic Activity (relative β-galactosidase activity): compounds at 1 µM, compared to DMSO (set as 1); for EC50: YES assay
T1 construct: host or cells: Saccharomyces cerevisiae
T1 sequence (P03372 1-595): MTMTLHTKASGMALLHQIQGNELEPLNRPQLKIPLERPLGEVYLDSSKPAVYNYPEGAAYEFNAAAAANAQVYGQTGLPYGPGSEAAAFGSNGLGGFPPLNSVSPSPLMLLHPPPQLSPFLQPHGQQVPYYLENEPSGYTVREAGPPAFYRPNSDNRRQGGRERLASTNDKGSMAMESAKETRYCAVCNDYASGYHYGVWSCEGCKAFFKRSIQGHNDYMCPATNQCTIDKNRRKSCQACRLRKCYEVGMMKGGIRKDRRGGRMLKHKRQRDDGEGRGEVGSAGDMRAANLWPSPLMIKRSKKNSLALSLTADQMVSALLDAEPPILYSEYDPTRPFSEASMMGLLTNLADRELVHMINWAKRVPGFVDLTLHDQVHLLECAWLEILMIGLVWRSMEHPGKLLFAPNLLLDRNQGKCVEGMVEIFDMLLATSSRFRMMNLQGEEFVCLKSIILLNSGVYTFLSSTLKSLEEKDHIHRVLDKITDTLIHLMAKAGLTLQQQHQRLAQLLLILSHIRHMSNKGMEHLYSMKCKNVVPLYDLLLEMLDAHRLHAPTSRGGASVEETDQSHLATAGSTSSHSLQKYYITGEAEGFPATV
Protocol: (§1) All synthesized compounds were tested for their relative activity in β-galactosidase in a yeast estrogen screen (YES) assay. Compounds were tested for their relative estrogenic/anti-estrogenic activities in comparison to positive and negative controls, respectively. YES assay is a gene reporter assay where the DNA sequence of human ERα is integrated into the yeast genome completed with an expression plasmid carrying estrogen response elements (ERE) in the promoter controlling the expression of the reporter gene lacZ (encoding the enzyme β-galactosidase). In the presence of estrogenic compounds, β-galactosidase is synthesized and secreted into the medium, where it converts the chromogenic substrate chlorophenol red-β-D-galactopyranoside (CRPG) from a yellow to a red product, whose absorbance is measured. […] Therefore, we decided to test the novel compounds in an organ-specific in vitro model using the human Ishikawa endometrial adenocarcinoma cell line.
All synthesized compounds were tested for their relative β-galactosidase activity in a yeast estrogen screen (YES) assay at a concentration of 1 µM using DMSO as control (set as 1).
(§2) The yeast estrogen receptor assay was supplied by Dr. J.P. Sumpter (Brunel University, Uxbridge, UK) and was used to determine the relative transactivation activity of the human ERα as formerly described. Briefly, Saccharomyces cerevisiae stably transfected with a human ERα and an estrogen-responsive element fused to the reporter gene lacZ encoding for β-galactosidase were treated with the test substances for about 48 h. The β-galactosidase enzymatic activity was measured in a colorimetric assay using a microplate photometer by hydrolysis of the substrate chlorophenol red β-D-galactopyranoside (Roche Diagnostics, Mannheim, Germany), which leads to the formation of chlorophenol red. This can be measured as an increased absorption at 540 nm. All compounds were diluted in DMSO. […] All compounds were tested in technical quadruplicates and biological triplicates. Statistical analysis was performed by analysis of variance (ANOVA) and Tukey’s post-hoc test with the significance level of p < 0.05.

[2] = tested on: Ishikawa endometrial adenocarcinoma cell line; test: Alkaline phosphatase (AlkP) activity in Ishikawa cells; type: cell-based, human; conditions: for Relative alkaline phosphatase activity: 72 h, DMSO set to 1
Protocol: Alkaline phosphatase (AlkP) activity in these human endometrial cancer cells is markedly stimulated by estrogens.
Because of the potential SERM character of the compounds tested, their estrogenic effects were studied in an endometrial-derived cell culture model, the human endometrial adenocarcinoma cell line Ishikawa. […] All compounds were screened at two concentrations, 0.1 and 1 µM. Its agonistic effect was compared to the vehicle control DMSO (data shown in Supplementary Materials). […] The four compounds were studied in a concentration range of 1 nM to 10 µM.
Estrogens stimulate the activity of alkaline phosphatase (AlkP) in Ishikawa cells (human endometrial adenocarcinoma cells; kindly provided by Prof. Masato Nishida, National Hospital Organization, Kasumigaura Medical Center, Japan). This enzyme activity is estimated by using the chromogen substrate (4-nitrophenylphosphate). […] The procedure was modified by Littlefield et al., 1990 [42].
After 72 h incubation, cells were harvested, washed twice with PBS, and incubated at −80 °C for about 30 min to lyse the cells. After thawing, the lysates were resuspended in reaction buffer (274 mM mannitol, 100 mM CAPS, 4 mM MgCl2, pH 10.4) containing 4 mM p-nitrophenylphosphate (NPP). After incubation for 1 h in the dark, AlkP activity was assayed by using the hydrolysis of p-nitrophenylphosphate to p-nitrophenol at pH 10.4 and the spectrometric determination of the kinetic of the product formation at 405 nm. All compounds were tested in technical triplicates and biological triplicates. Statistical analysis was performed by analysis of variance (ANOVA) and Tukey’s post-hoc test with the significance level of p < 0.05.

[3] = biological target: T1, human ERα; test: Yeast estrogen screen (YES) assay, antagonistic activity (β-galactosidase reporter); type: cell-based, yeast (Saccharomyces cerevisiae); conditions: compounds at 1 µM in presence of 0.5 nM/1 nM E2 (E2 set as 1); triplicates
Protocol: as §1, §2

Row | SMILES | Estrogenic Activity (relative β-galactosidase activity) [1] | EC50 [1] | Anti-Estrogenic Activity (relative β-galactosidase activity) [3] | Relative alkaline phosphatase activity ([2]; 1 µM) | also measured
1 | COc1ccc(C(C)=C(c2ccc(O)cc2)c2ccc(Cl)cc2)cc1F [Compound 3, E/Z-4-[1-(4-Chlorophenyl)-2-(3-fluoro-4-methoxyphenyl)propenyl]-phenol] | 12.83 ± 2.72 | 0.04 µM and 0.0401 µM |  | 1.13 ± 0.43 | 
2 | COc1cc(C(C)=C(c2ccc(Cl)cc2)c2ccc(OCCCN(C)C)cc2)ccc1F [Compound 22, E/Z-(3-{4-[1-(4-Chlorophenyl)-2-(4-fluoro-3-methoxyphenyl)-propenyl]-phenoxy}-propyl)-dimethyl-amine] | 1.87 ± 0.74 |  | 0.97 ± 0.03 |  | 
3 | COc1ccc(C(C)=C(c2ccc(Cl)cc2)c2ccc(OCCN3CCOCC3)cc2)cc1 [Compound 13, E/Z-4-(2-{4-[1-(4-Chloro-phenyl)-2-(4-methoxy-phenyl)-propenyl]-phenoxy}-ethyl)-morpholine] | 12.41 and 12.41 ± 0.26 |  |  | 3.74 ± 2.05 | 
4 | COc1ccc(C(C)=C(c2ccc(Cl)cc2)c2ccc(OCCN(C)C)cc2)cc1F [Compound 20, E/Z-(2-{4-[1-(4-Chlorophenyl)-2-(3-fluoro-4-methoxyphenyl)-propenyl]-phenoxy}-ethyl)-dimethyl-amine] | 2.40 ± 0.64 |  |  | 1.12 ± 0.46 | 
5 | CCN(CC)CCOc1ccc(C(=C(C)c2ccc(OC)c(F)c2)c2ccc(Cl)cc2)cc1 [Compound 21, E/Z-(2-{4-[1-(4-Chlorophenyl)-2-(3-fluoro-4-methoxyphenyl)-propenyl]-phenoxy}-ethyl)-diethyl-amine] | 2.40 ± 0.77 | 0.735 ± 0.013 µM |  | 0.90 ± 0.13 | 
6 | COc1ccc(C(C)=C(c2ccc(Cl)cc2)c2ccc(OCCCN(C)C)cc2)cc1F [Compound 15, E/Z-(3-{4-[1-(4-Chlorophenyl)-2-(3-fluoro-4-methoxyphenyl)-propenyl]-phenoxy}-propyl)-dimethyl-amine] | 7.77 and 7.77 ± 1.9 | 0.44 ± 0.01 µM |  | 0.86 ± 0.12 | 
7 | CCN(CC)CCOc1ccc(C(=C(C)c2ccc(F)c(OC)c2)c2ccc(Cl)cc2)cc1 [Compound 28, E/Z-(2-{4-[1-(4-Chlorophenyl)-2-(4-fluoro-3-methoxyphenyl)-propenyl]-phenoxy}-ethyl)-diethyl-amine] | 1.37 ± 0.39 |  | 0.86 ± 0.07 |  | 
8 | COc1cc(C(C)=C(c2ccc(Cl)cc2)c2ccc(OCCN(C)C)cc2)ccc1F [Compound 27, E/Z-(2-{4-[1-(4-Chlorophenyl)-2-(4-fluoro-3-methoxyphenyl)-propenyl]-phenoxy}-ethyl)-dimethyl-amine] | 1.15 ± 0.17 |  | 0.86 ± 0.04 |  | 
9 | COc1cc(C(C)=C(c2ccc(O)cc2)c2ccc(Cl)cc2)ccc1F [Compound 4, E/Z-4-[1-(4-Chlorophenyl)-2-(4-fluoro-3-methoxyphenyl)propenyl]-phenol] | 6.62 ± 1.74 | 0.258 ± 0.08 µM |  | 1.10 ± 0.39 | 

Second part, led by results:

Row | Estrogenic Activity (relative β-galactosidase activity) [1] | EC50 [1] | Anti-Estrogenic Activity (relative β-galactosidase activity) [3] | SMILES | Relative alkaline phosphatase activity ([2]; 1 µM) | also measured
10 | 2.19 ± 0.71 |  |  | COc1ccc(C(C)=C(c2ccc(Cl)cc2)c2ccc(OCCN3CCCC3)cc2)cc1F [Compound 16, E/Z-1-(2-{4-[1-(4-Chlorophenyl)-2-(3-fluoro-4-methoxyphenyl)-propenyl]-phenoxy}-ethyl)-pyrrolidine] | 0.98 ± 0.53 | 
11 | 1.31 ± 0.30 |  | 1.18 ± 0.03 | COc1cc(C(C)=C(c2ccc(Cl)cc2)c2ccc(OCCN3CCOCC3)cc2)ccc1F [Compound 25, E/Z-4-(2-{4-[1-(4-Chlorophenyl)-2-(4-fluoro-3-methoxyphenyl)-propenyl]-phenoxy}-ethyl)-morpholine] |  | 
12 | 1.76 ± 0.56 |  |  | COc1ccc(C(C)=C(c2ccc(Cl)cc2)c2ccc(OCCN3CCOCC3)cc2)cc1F [Compound 18, E/Z-4-(2-{4-[1-(4-Chlorophenyl)-2-(3-fluoro-4-methoxyphenyl)-propenyl]-phenoxy}-ethyl)-morpholine] | 1.01 ± 0.24 | 
13 | 7.28 and 7.28 ± 3.10 | 0.252 ± 0.008 µM |  | COc1ccc(C(C)=C(c2ccc(Cl)cc2)c2ccc(OCCN3CCCCC3)cc2)cc1F [Compound 17, E/Z-1-(2-{4-[1-(4-Chlorophenyl)-2-(3-fluoro-4-methoxyphenyl)-propenyl]-phenoxy}-ethyl)-piperidine] | 1.31 ± 0.41 | 
14 | 1.19 ± 0.20 |  | 1.19 ± 0.10 | COc1cc(C(C)=C(c2ccc(Cl)cc2)c2ccc(OCCN3CCCCC3)cc2)ccc1F [Compound 24, E/Z-1-(2-{4-[1-(4-Chlorophenyl)-2-(4-fluoro-3-methoxyphenyl)-propenyl]-phenoxy}-ethyl)-piperidine] |  | 
15 | 1.78 ± 0.64 |  | 1.05 ± 0.12 | COc1cc(C(C)=C(c2ccc(Cl)cc2)c2ccc(OCCN3CCCCCC3)cc2)ccc1F [Compound 26, E/Z-1-(2-{4-[1-(4-Chlorophenyl)-2-(4-fluoro-3-methoxyphenyl)-propenyl]-phenoxy}-ethyl)-azepane] |  | 
16 | 3.22 and 3.22 ± 1.22 | 0.407 ± 0.086 µM |  | COc1ccc(C(C)=C(c2ccc(Cl)cc2)c2ccc(OCCN3CCCCCC3)cc2)cc1F [Compound 19, E/Z-1-(2-{4-[1-(4-Chlorophenyl)-2-(3-fluoro-4-methoxyphenyl)-propenyl]-phenoxy}-ethyl)-azepane] |  | Relative alkaline phosphatase activity ([2]; 1 nM): 1.02 ± 0.13; Relative alkaline phosphatase activity ([2]; 10 nM): 1.06 ± 0.11; Relative alkaline phosphatase activity ([2]; 100 nM): 1.75 ± 0.08; Relative alkaline phosphatase activity ([2]; 10 µM): 0.04 ± 0.04; effect on AlkP activity (in words) ([2]; 72 h treatment, 5-dose assay 1 nM to 10 µM): increase the AlkP activity in a dose-pendent manner
